Test results taken from patent publication US5326882A, “Chemiluminescent 3-(substituted Adamant-2'-Ylidene) 1,2-dioxetanes” (Tropix, Inc., priority 1992, dated 1994).

Experiments:
Type in all cases: biochemical
[1] = biological target: T1, alkaline phosphatase (calf intestine; Biozyme) (Bos taurus, UniProt P19111); assay: Total dephosphorylation, chemiluminescence decay (Example XIII); conditions: 30° C., carbonate/bicarbonate buffer, listed as OH-Adamant-2'-ylidene (A isomer)
T1 construct: purchased Biozyme; host or cells: calf intestine
T1 sequence (P19111 20-506 limits assumed): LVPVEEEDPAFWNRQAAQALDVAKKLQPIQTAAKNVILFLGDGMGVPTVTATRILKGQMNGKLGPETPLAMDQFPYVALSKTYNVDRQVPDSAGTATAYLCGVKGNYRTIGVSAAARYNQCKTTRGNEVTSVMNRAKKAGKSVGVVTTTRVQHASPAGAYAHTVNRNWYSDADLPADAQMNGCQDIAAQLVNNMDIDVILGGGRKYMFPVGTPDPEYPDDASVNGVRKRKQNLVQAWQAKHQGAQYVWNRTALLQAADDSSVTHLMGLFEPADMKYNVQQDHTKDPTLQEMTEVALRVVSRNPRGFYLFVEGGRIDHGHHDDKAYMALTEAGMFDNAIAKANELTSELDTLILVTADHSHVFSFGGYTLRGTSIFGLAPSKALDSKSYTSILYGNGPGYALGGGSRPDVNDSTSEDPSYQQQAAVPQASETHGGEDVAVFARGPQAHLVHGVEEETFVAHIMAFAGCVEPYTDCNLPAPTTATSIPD
Protocol: A comparison of the total luminescence emission from AMPPD and from the corresponding 1,2-dioxetanes whose adamant-2'-ylidene groups are monosubstituted with hydroxy (A and B isomers), chloro and bromo groups was made by carrying out total dephosphorylation experiments on each of these compounds.
An aqueous solution of the 1,2-dioxetane (4.0 mm) in 0.05M sodium carbonate/sodium bicarbonate containing 1 mM magnesium chloride was prepared and then equilibrated at 30° C. Ten μl of a 7.64×10M aqueous solution of alkaline phosphatase (calf intestine; Biozyme) was then added, and the chemiluminescence from the resulting solution was recorded using a Turner Model 20E luminometer (Turner Instruments; Sunnyvale, Calif.).
The rates of chemiluminescence decay for each of the five compounds in question, expressed in relative light units (RLU's) per minute, are given in the following table.

alkaline phosphatase [2] = biological target: T2, alkaline phosphatase (Bos taurus, UniProt P19111); assay: Alkaline phosphatase detection limits, Wilj microtiter plate luminometer (Example XXVI); conditions: 23 MINUTE INCUBATION
T2 sequence (P19111 20-506 limits assumed): as above

alkaline phosphatase [3] = biological target: T2, alkaline phosphatase; assay: Chemiluminescent signal and signal:background with enhancer polymers (Example XVII)
Protocol: Four sets of three tubes each, each tube in each set containing 450 μl of a 0.4 mM aqueous solution of one of the four 1,2-dioxetanes being compared in 0.1M diethanolamine containing 1 mM magnesium chloride, 0.02% sodium azide and 0.1% of the enhancer polymer, pH 10.0 (substrate buffer) were prepared and the background signal from each tube measured using a Berthold LB 952T luminometer (Berthold Instruments; Wildbad, Federal Republic of Germany).
Next, 50 μl of an aqueous solution, 2.83×10^-12 M of alkaline phosphatase in 0.1M diethanolamine containing 1 mM magnesium chloride, 0.02% sodium azide, pH 10.0, (final enzyme concentration 2.83×10^-13 M) was added to each tube and the chemiluminescent signals were measured in the luminometer at 5 and 20 minutes. The intensity of the chemiluminescent signals and the signal: background ratios obtained for each of the four 1,2-dioxetanes in the presence of the enhancer polymers are shown in Table III below.
The enhancer polymers used, and the symbols for such polymers used in Table III, were the following: […]

COC1(c2cccc(OP(=O)(O)O)c2)OOC12C1CC3CC2CC(O)(C3)C1 (single isomer, unassigned) [A-OH-AMPPD, disodium 3-(4-methoxyspiro-[1,2-dioxetane-3,2'-(5'-hydroxy)tricyclo[3.3.1.1^3,7]decan]-4-yl)phenyl phosphate]
Total Decay Time [1]: 9 min | Decay Rate I ([1]; RLU's per minute): 1.3 RLU's per minute | Alkaline phosphatase detection limit (at 2× background) (alkaline phosphatase [2]; SAPPHIRE II): 0.0014 pM | Alkaline phosphatase detection limit (at 2× background) (alkaline phosphatase [2]; SAPPHIRE): 0.0015 pM | S/N (alkaline phosphatase [3]; polymer BAEDM, 5 min): 61.6 | SIGNAL (alkaline phosphatase [3]; polymer BAEDM, 5 min): 5887.3 | S/N (alkaline phosphatase [3]; polymer BAEDM, 20 min): 77.8 | SIGNAL (alkaline phosphatase [3]; polymer BAEDM, 20 min): 7433.5 | S/N (alkaline phosphatase [3]; polymer BAEDM, time 0): 1.0 | SIGNAL (alkaline phosphatase [3]; polymer BAEDM, time 0 (background, before enzyme)): 95.6 | S/N (alkaline phosphatase [3]; polymer BZ, 5 min): 27.0 | SIGNAL (alkaline phosphatase [3]; polymer BZ, 5 min): 2156.9 | S/N (alkaline phosphatase [3]; polymer BZ, 20 min): 31.7 | SIGNAL (alkaline phosphatase [3]; polymer BZ, 20 min): 2536.7 | S/N (alkaline phosphatase [3]; polymer BZ, time 0): 1.0 | SIGNAL (alkaline phosphatase [3]; polymer BZ, time 0 (background, before enzyme)): 79.9 | S/N (alkaline phosphatase [3]; polymer DAA TMQ, 5 min): 61.7 | SIGNAL (alkaline phosphatase [3]; polymer DAA TMQ, 5 min): 5583.1 | S/N (alkaline phosphatase [3]; polymer DAA TMQ, 20 min): 69.7 | SIGNAL (alkaline phosphatase [3]; polymer DAA TMQ, 20 min): 6309.4 | S/N (alkaline phosphatase [3]; polymer DAA TMQ, time 0): 1.0 | SIGNAL (alkaline phosphatase [3]; polymer DAA TMQ, time 0 (background, before enzyme)): 90.5 | S/N (alkaline phosphatase [3]; polymer DME(OH)B, 5 min): 46.1 | SIGNAL (alkaline phosphatase [3]; polymer DME(OH)B, 5 min): 3931.9 | S/N (alkaline phosphatase [3]; polymer DME(OH)B, 20 min): 66.2 | SIGNAL (alkaline phosphatase [3]; polymer DME(OH)B, 20 min): 5300.5 | S/N (alkaline phosphatase [3]; polymer DME(OH)B, time 0): 1.0 | SIGNAL (alkaline phosphatase [3]; polymer DME(OH)B, time 0 (background, before enzyme)): 85.2 | S/N (alkaline phosphatase [3]; polymer DMEB, 5 min): 77.1 | SIGNAL (alkaline phosphatase [3]; polymer DMEB, 5 min): 6160.6 | S/N (alkaline phosphatase [3]; polymer DMEB, 20 min): 98.1 | SIGNAL (alkaline phosphatase [3]; polymer DMEB, 20 min): 7835.2 | S/N (alkaline phosphatase [3]; polymer DMEB, time 0): 1.0 | SIGNAL (alkaline phosphatase [3]; polymer DMEB, time 0 (background, before enzyme)): 79.9 | S/N (alkaline phosphatase [3]; polymer DMQ TEQ, 5 min): 189.7 | SIGNAL (alkaline phosphatase [3]; polymer DMQ TEQ, 5 min): 17235.6 | S/N (alkaline phosphatase [3]; polymer DMQ TEQ, 20 min): 227.9 | SIGNAL (alkaline phosphatase [3]; polymer DMQ TEQ, 20 min): 20702.2 | S/N (alkaline phosphatase [3]; polymer DMQ TEQ, time 0): 1.0 | SIGNAL (alkaline phosphatase [3]; polymer DMQ TEQ, time 0 (background, before enzyme)): 90.8 | S/N (alkaline phosphatase [3]; polymer MPB, 5 min): 140.7 | SIGNAL (alkaline phosphatase [3]; polymer MPB, 5 min): 13165.3 | S/N (alkaline phosphatase [3]; polymer MPB, 20 min): 172.7 | SIGNAL (alkaline phosphatase [3]; polymer MPB, 20 min): 16159.2 | S/N (alkaline phosphatase [3]; polymer MPB, time 0): 1.0 | SIGNAL (alkaline phosphatase [3]; polymer MPB, time 0 (background, before enzyme)): 93.6 | S/N (alkaline phosphatase [3]; polymer NONE, 5 min): 32.9 | SIGNAL (alkaline phosphatase [3]; polymer NONE, 5 min, enzyme 2.83×10^-13 M): 2863.6 | S/N (alkaline phosphatase [3]; polymer NONE, 20 min): 36.3 | SIGNAL (alkaline phosphatase [3]; polymer NONE, 20 min, enzyme 2.83×10^-13 M): 3160.8 | S/N (alkaline phosphatase [3]; polymer NONE, time 0): 1.0 | SIGNAL (alkaline phosphatase [3]; polymer NONE, time 0 (background, before enzyme)): 87.0 | S/N (alkaline phosphatase [3]; polymer S/TMQ(1:2), 5 min): 112.5 | SIGNAL (alkaline phosphatase [3]; polymer S/TMQ(1:2), 5 min): 10193.8 | S/N (alkaline phosphatase [3]; polymer S/TMQ(1:2), 20 min): 158.6 | SIGNAL (alkaline phosphatase [3]; polymer S/TMQ(1:2), 20 min): 11365.1 | S/N (alkaline phosphatase [3]; polymer S/TMQ(1:2), time 0): 1.0 | SIGNAL (alkaline phosphatase [3]; polymer S/TMQ(1:2), time 0 (background, before enzyme)): 90.6 | S/N (alkaline phosphatase [3]; polymer S/TMQ(1:4), 5 min): 114.5 | SIGNAL (alkaline phosphatase [3]; polymer S/TMQ(1:4), 5 min): 9294.6 | S/N (alkaline phosphatase [3]; polymer S/TMQ(1:4), 20 min): 148.1 | SIGNAL (alkaline phosphatase [3]; polymer S/TMQ(1:4), 20 min): 1201.7 | S/N (alkaline phosphatase [3]; polymer S/TMQ(1:4), time 0): 1.0 | SIGNAL (alkaline phosphatase [3]; polymer S/TMQ(1:4), time 0 (background, before enzyme)): 81.2 | SIGNAL (alkaline phosphatase [3]; polymer SAPPHIRE (BDMQ), time 0 (background, before enzyme)): 86.1 | S/N (alkaline phosphatase [3]; polymer SAPPHIRE, 5 min): 244.5 | SIGNAL (alkaline phosphatase [3]; polymer SAPPHIRE, 5 min): 21051.3 | S/N (alkaline phosphatase [3]; polymer SAPPHIRE, 20 min): 292.3 | SIGNAL (alkaline phosphatase [3]; polymer SAPPHIRE, 20 min): 25330.3 | S/N (alkaline phosphatase [3]; polymer SAPPHIRE, time 0): 1.0 | S/N (alkaline phosphatase [3]; polymer TBQ, 5 min): 366.0 | SIGNAL (alkaline phosphatase [3]; polymer TBQ, 5 min): 37244.5 | S/N (alkaline phosphatase [3]; polymer TBQ, 20 min): 438.0 | SIGNAL (alkaline phosphatase [3]; polymer TBQ, 20 min): 44569.8 | S/N (alkaline phosphatase [3]; polymer TBQ, time 0): 1.0 | SIGNAL (alkaline phosphatase [3]; polymer TBQ, time 0 (background, before enzyme)): 101.8 | S/N (alkaline phosphatase [3]; polymer TEQ, 5 min): 45.24 | SIGNAL (alkaline phosphatase [3]; polymer TEQ, 5 min): 15779.8 | S/N (alkaline phosphatase [3]; polymer TEQ, 20 min): 54.7 | SIGNAL (alkaline phosphatase [3]; polymer TEQ, 20 min): 1908.9 | S/N (alkaline phosphatase [3]; polymer TEQ, time 0): 1.0 | SIGNAL (alkaline phosphatase [3]; polymer TEQ, time 0 (background, before enzyme)): 348.8 | S/N (alkaline phosphatase [3]; polymer TMQ, 5 min): 113.6 | SIGNAL (alkaline phosphatase [3]; polymer TMQ, 5 min): 8853.4 | S/N (alkaline phosphatase [3]; polymer TMQ, 20 min): 149.6 | SIGNAL (alkaline phosphatase [3]; polymer TMQ, 20 min): 11658.3 | S/N (alkaline phosphatase [3]; polymer TMQ, time 0): 1.0 | SIGNAL (alkaline phosphatase [3]; polymer TMQ, time 0 (background, before enzyme)): 77.9
